Results from BindingDB's records for doi:10.1021/jm050520a (Schering-Plough Research Institute, 2006).
Numbered stars: 1 amine (or outer) side, 2 acyl side, 3 side chain; on linkers, the order of the positions; unused ones are H or OH. Square brackets hold non-standard residues; d marks the D form. Peptide text beside a SMILES is read from it. * marks the point of attachment. X1 = CCCC(N[*:1])C(=O)C(=O)[*:2]; Tic = O=C(O)[C@@H]1Cc2ccccc2CN1; Chg = N[C@H](C(=O)O)C1CCCCC1; Phg = N[C@H](C(=O)O)c1ccccc1; Boc = CC(C)(C)OC(=O)*

Molecular target: Genome polyprotein (Hepatitis C virus genotype 1a (isolate H77), UniProt P27958)
Test: Continuous Spectrophotometric Assay
Conditions: pH 6.5; 30 °C
Description: Proteolytic cleavage of the ester linkage between the Nva (L-norvaline) and the chromophore (PAP) was monitored for change in absorbance at 370 nm. Initial velocities were determined using linear regression and kinetic constants were obtained by fitting the data to the Michaelis-Menten equation.

Sequence of Genome polyprotein (P27958 1027-1657 limits assumed): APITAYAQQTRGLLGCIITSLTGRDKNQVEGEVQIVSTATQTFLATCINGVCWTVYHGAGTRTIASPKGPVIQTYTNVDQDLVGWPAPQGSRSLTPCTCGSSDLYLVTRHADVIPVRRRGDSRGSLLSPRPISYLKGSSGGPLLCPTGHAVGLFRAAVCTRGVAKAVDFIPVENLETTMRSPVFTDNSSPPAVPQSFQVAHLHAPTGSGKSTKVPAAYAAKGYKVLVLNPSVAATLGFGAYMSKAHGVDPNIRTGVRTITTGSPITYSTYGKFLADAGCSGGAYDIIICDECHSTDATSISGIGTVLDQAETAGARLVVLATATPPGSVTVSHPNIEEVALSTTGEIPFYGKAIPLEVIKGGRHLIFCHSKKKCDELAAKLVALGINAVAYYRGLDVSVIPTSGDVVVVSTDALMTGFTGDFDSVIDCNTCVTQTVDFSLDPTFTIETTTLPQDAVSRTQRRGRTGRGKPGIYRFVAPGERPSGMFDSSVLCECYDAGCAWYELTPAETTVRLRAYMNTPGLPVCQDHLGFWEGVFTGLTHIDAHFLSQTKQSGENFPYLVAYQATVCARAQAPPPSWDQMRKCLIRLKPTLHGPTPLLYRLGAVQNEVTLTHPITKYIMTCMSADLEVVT

Work on CCCC(NC(=O)[C@@H]1Cc2ccccc2CN1C(=O)[C@@H](NC(=O)OC(C)(C)C)C1CCCCC1)C(=O)C(=O)NCC(=O)N[C@H](C(=O)N(C)C)c1ccccc1 (stereo partly drawn) [tert-butyl N-[(1S)-1-cyclohexyl-2-[(3S)-3-({1-[({[(S)-(dimethylcarbamoyl)(phenyl)methyl]carbamoyl}methyl)carbamoyl]-1-oxopentan-2-yl}carbamoyl)-1,2,3,4-tetrahydroisoquinolin-2-yl]-2-oxoethyl]carbamate] (Boc-[Chg][Tic][X1]G[Phg]-NMe2) yielded a Ki of 1200 nM.
